Measured values from US12329760B2, “Methods and compositions for targeting retinoic acid for solid tumor immunotherapy” (THE TRUSTEES OF THE UNIVERSITY OF PENNSYLVANIA, priority 2019, dated 2025).

B1: IL4: Th2 cytokine (protein, UniProt P05112 25-153, looked up)
Interleukin-4: HKCDITLQEIIKTLNSLTEQKTLCTELTVTDIFAASKNTTEKETFCRAATVLRQFYSHHEKDTRCLGATAQQFHRHKQLIRFLKRLDRNLWGLAGLNSCPVKEANQSTLENFLERLKTIMREKYSKCSS

Test system: MCAS cells
Test: RALDH3 expression in treated MCAS cells by RT-QPCR
Type: cell-based, murine
Settings: for RALDH3 expression (relative to 18S): MCAS cells treated in vitro with cytokine, vs no Tx
Experimental: FIGS. 16A-16C show 1L13 and RALDH expression. FIG. 16A: MCAS cells were treated in vitro with indicated agents and RALDH3 expression (relative to 18S) measured by RT-QPCR. P<0.05 between no Tx and IL4 or IL13. N=3, repeated >5 times. FIG. 16B: IL13 and IL13Rα1 staining in murine UPS. FIG. 16C: Single cell suspension from MCAS tumors were fractionated into CD45+(Leukocytes) and CD45-fraction using miltenyi magnetic columns. RT-QPCR based measurement (relative to 18S) of IL13 and IL13Rα1 transcripts were performed on fractionated cells. P<0.01 for IL13. N=3, experiment repeated twice.
FIG. 20A: MCAS cells were treated with indicated compounds and RALDH3 expression (relative to 18S) measured by RT-QPCR. P<0.01 for DMSO vs. IL13. P<0.05 for IL13 vs. IL13+BMS493. FIG. 20B: Schematic of RALDH3 regulation by RA.
Aldefluor positive and negative cells were purified from murine fibrosarcomas and were transplanted into syngeneic B6 mice. Tumors derived from both types of cells generated both aldefluor positive and negative cells. This indicated the existence of an environmental signal in the TME that induces RA production in tumor cells. Th2 cytokines such as IL4 and IL13 can promote the differentiation of monocytes into either immunostimulatory DCs or immunosuppressive TAMS. Therefore, it was reasoned that tumors might induce RA production in the presence of IL4 or IL13 to block DC and promote TAM differentiation. To test this, MCAS cell lines were treated with cytokines promoting macrophage and DC differentiation and measured the expression of RALDH enzymes. […] IL13 and its receptor IL13Rα1 were also detected in murine sarcomas by IHC (FIG. 16B).

Row | Molecule | potency of RALDH3 induction, IL13 compared with IL4 (MCAS cells in vitro) | RALDH3 expression (relative to 18S)
1 | IL13: Th2 cytokine | more potent | induced the expression of RALDH3
2 | B1 | – | induced the expression of RALDH3
